Measured values from patent US9902735B2, “Heteroaryl substituted compounds as RORγ inhibitors” (GlaxoSmithKline Intellectual Property Developement Limited, priority 2014, dated 2018).

Key:
C57BL/6NTac mice [1] = test: Imiquimod-induced skin inflammation, ears and back skin: RORγ-dependent gene expression and ex vivo stimulated whole blood IL-17A; format: in vivo, mouse
Description: (§1) Imiquimod is an immune modifying agent that potently activates specific Toll-like receptors (e.g., TLR7) and induces irritation/inflammation of the skin that requires the IL23R/RORγ/IL17 axis of the immune system (van der Fits et al, (2009) J Immunol; 182:5836-5845; Gray et al, (2013) Nature Immunol; June; 14(6):584-92). The imiquimod-induced skin inflammation model can be used to assess the ability of an RORγ inhibitor to reduce Th17-driven inflammation in mice. For the ear-only skin inflammation model in which ear thickness was measured with digital engineer's calipers (Mitutoyo PK-0505), female wild type C57BL/6NTac mice obtained from Taconic (Hudson, N.Y.) at 8 to 12 wk of age received a daily topical dose of 10 mg of commercially available imiquimod cream (5%) (Aldara; Medicis) distributed over both ears at approximately 11:00 h for up to 4 consecutive days. Alternatively, 72 mg of Aldara was distributed over both ears and the shaved/depiliated back skin of mice at approximately 11:00 h for 3 consecutive days to examine RORγ-dependent gene expression (RNA isolated from both ears using Qiazol followed by clean-up on with the RNeasy protocol (Qiagen, Germantown, Md.); Taqman probe/primer sets for B2M (Mm00437762_ml), IL-17A (Mm00439619_ml), IL-17F (Mm00521423_ml), or IL-22 (Mm00444241_ml) (Thermo Fisher Scientific, Inc., Waltham, Mass.) and ex vivo stimulated (anti-CD3 (2 μg/ml, clone eBio500A2, eBioscience, San Diego, Calif.), anti-CD28 (1 μg/ml, clone 37.51, BD Bioscience, San Jose, Calif.), recombinant mouse IL-13 (20 ng/ml, R&D Systems, Minneapolis, Minn.), and recombinant mouse IL-23 (20 ng/ml, R&D Systems, Minneapolis, Minn.) IL-17A protein expression from whole blood (Meso Scale Discovery, Rockville, Md.). For treatment of the skin inflammation in these models, each compound or vehicle (methylcellulose in water, 1% w/v, Sigma Aldrich, St. Louis, Mo.) was administered via oral gavage at approximately 08:00 h and 16:00 h daily at various doses selected from 1, 3, 10, and 30 mg/kg.

C57BL/6NTac mice [2] = test: Imiquimod-induced skin inflammation, ear-only model (ear thickness); format: in vivo, mouse; conditions: for imiquimod-induced ear thickening: oral gavage twice daily, Studies 1-4
Description: as §1

Compound: Cc1c(CN2CCN(C(=O)C3CCCC3)[C@@H](C)C2)cc(Cl)cc1NC(=O)CCS(C)(=O)=O [Example 43, (S)—N-(5-chloro-3-((4-(cyclopentanecarbonyl)-3-methylpiperazin-1-yl)methyl)-2-methylphenyl)-3-(methylsulfonyl)propanamide]
- IL17A protein expressed following ex vivo stimulation of whole blood (C57BL/6NTac mice [1]; study A, 10 mg/kg oral): significantly reduced
- ear mRNA levels of IL17A, IL17F, or IL22 (C57BL/6NTac mice [1]; study A, 10 mg/kg oral): no significant reduction
- IL17F mRNA levels in the ear skin (C57BL/6NTac mice [1]; study B, 10 mg/kg oral): significantly reduced
- IL22 mRNA levels in the ear skin (C57BL/6NTac mice [1]; study B, 10 mg/kg oral): significantly reduced
- IL17A mRNA levels in the ear skin (C57BL/6NTac mice [1]; study C): reached statistical significance
- imiquimod-induced ear thickening (C57BL/6NTac mice [2]; 10 mg/kg): statistically significant reduction
- imiquimod-induced ear thickening (C57BL/6NTac mice [2]; 30 mg/kg): statistically significant reduction
- imiquimod-induced ear thickening, versus vehicle (FIG. 1) (C57BL/6NTac mice [2]; FIG. 1, dose not stated): statistically significant reduction
